Test results taken from patent US20060270634A1, “Acetal phosphate-derived LPA mimics, PPARgamma activators, and autotaxin inhibitors” (priority 2005, published 2006).
Read-outs that look alike come from different tables or passages of the source.

Assays:
PPARγ = target: T1, PPARγ (Homo sapiens, UniProt P37231); test: PPARγ activation, PPRE-Acox-Rluc reporter gene assay in CV1 cells; assay type: cell-based; conditions: for PPARγ activation in words: FIG. 9: 10 μM, 20 h; for PPARγ: Table 3
T1 construct: expressed in transfected cells; host or cells: CV1 cells (African green monkey kidney)
T1 sequence (P37231 1-505): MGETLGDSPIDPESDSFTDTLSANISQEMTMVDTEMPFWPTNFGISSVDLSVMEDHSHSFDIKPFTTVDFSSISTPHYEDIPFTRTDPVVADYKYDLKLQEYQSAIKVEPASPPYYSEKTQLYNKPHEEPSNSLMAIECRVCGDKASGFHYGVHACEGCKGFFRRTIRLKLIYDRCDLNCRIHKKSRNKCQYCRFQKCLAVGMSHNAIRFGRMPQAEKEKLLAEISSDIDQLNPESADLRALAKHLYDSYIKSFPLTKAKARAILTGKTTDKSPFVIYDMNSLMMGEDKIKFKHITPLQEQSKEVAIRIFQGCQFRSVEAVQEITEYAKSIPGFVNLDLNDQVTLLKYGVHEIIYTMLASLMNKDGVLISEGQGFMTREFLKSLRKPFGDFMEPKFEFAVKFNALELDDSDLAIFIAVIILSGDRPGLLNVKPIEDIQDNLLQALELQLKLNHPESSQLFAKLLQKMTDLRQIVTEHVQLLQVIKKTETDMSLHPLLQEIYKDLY
Procedure: (§1) The biological effects of all synthesized compounds were testing using three high-throughput assays. First, intracellular calcium transients in rat hepatoma (RH777, an LPA receptor null cell) cell lines individually expressing either LPA1, LPA2, and LPA3 receptors were analyzed to evaluate compounds as agonists or antagonists. […] The PPRE-Acox-Rluc construct contains a renilla luciferase coding region, an acyl-CoA oxidase coding region, and a PPAR response element coding region. Third, inhibition of the lysophospholipase D autotoxin was determined using a previously described procedure.
PPARγ is a lipid-activated transcription factor that belongs to the nuclear hormone superfamily. The inventors examined the activity of all synthesized Darmstoff analogs as PPARγ activators in vitro in CV1 cells using a PPRE-Acox-Rluc reporter gene assay. Rosiglitazone, a known PPARγ agonist, was used as a positive control for comparison.
RH7777 cells, which lack LPA GPCR, were stably transfected with individual LPA1, LPA2 and LPA3 receptors and used for the in vitro screening.
Unlike the enantiospecific responses compounds at LPA GPCR by APA analogs, there was no stereoselectivity observed in PPARγ activation by these analogs.

LPA1 = LPA1 (Homo sapiens, UniProt Q92633); test: Ca2+ transients in RH7777 cells expressing LPA1 (agonist / inhibition of LPA response); conditions: for LPA1 effect in words: Tables 2, 4, 6
Procedure: (§2) Synthesized compounds were tested for induction and inhibition of LPA-induced calcium transients in rat hepatoma (RH7777) cell lines that stably express individual LPA1, LPA2, and LPA3 receptors as described in the literature using a FlexStation II automated fluorimeter (Molecular Devices, Sunnyvale, Calif.).

LPA2 = LPA2 (Homo sapiens, UniProt Q9HBW0); test: Ca2+ transients in RH7777 cells expressing LPA2 (agonist / inhibition of LPA response)
Procedure: as §2

LPA3 = target: T2, LPA3 (Homo sapiens, UniProt Q9UBY5); test: Ca2+ transients in RH7777 cells expressing LPA3 (agonist / inhibition of LPA response); conditions: for IC50: read-out: LPA3 IC50; for EC50: read-out: LPA3 EC50
T2 sequence (Q9UBY5 1-353): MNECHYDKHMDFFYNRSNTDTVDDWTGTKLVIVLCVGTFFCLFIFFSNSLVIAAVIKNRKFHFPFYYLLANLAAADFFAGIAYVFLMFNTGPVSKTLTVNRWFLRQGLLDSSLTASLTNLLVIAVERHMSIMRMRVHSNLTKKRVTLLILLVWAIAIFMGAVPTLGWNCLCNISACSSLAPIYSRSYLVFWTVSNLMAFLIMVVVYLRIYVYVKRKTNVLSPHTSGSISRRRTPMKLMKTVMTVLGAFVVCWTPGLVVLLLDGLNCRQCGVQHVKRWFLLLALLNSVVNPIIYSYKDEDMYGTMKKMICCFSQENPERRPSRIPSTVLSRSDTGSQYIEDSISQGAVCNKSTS
Procedure: as §2

[1] = target: lysophospholipase D (autotaxin, ATX) (Homo sapiens, UniProt Q13822); test: Inhibition of lysophospholipase D autotaxin; assay type: biochemical; conditions: Table 3
Procedure: as §1
LPA is liberated as the product of lysophosphatidylcholine hyrolysis by the lysophospholipase D, autotaxin (ATX). The inventors screened Darmstoff analogs for ATX inhibition. As indicated by the data, all tested analogs are capable of ATX inhibition independently of their ligand properties at LPA GPCR and PPARγ.

PC3 cells = test: Calcium mobilization response in PC3 cells; assay type: cell-based
[2] = RH-LPA2 cells IC50, inhibition of 200 nM LPA response
[3] = RH-LPA2 cells IC50, inhibition of 300 nM LPA response
[4] = Table 3, maximal efficacy of drug/maximal efficacy of LPA 18:1

Sequence of LPA1 (Q92633 whole entry, species assumed): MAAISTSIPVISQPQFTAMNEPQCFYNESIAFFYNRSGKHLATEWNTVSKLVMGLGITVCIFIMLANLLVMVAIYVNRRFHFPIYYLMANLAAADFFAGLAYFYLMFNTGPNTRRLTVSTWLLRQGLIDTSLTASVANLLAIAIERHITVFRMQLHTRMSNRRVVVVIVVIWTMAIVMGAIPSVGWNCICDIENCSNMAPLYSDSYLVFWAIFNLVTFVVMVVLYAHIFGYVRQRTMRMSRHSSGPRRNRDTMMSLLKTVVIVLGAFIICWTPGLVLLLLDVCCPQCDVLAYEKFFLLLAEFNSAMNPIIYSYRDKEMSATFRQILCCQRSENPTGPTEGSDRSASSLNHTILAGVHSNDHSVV
Sequence of LPA2 (Q9HBW0 whole entry, species assumed): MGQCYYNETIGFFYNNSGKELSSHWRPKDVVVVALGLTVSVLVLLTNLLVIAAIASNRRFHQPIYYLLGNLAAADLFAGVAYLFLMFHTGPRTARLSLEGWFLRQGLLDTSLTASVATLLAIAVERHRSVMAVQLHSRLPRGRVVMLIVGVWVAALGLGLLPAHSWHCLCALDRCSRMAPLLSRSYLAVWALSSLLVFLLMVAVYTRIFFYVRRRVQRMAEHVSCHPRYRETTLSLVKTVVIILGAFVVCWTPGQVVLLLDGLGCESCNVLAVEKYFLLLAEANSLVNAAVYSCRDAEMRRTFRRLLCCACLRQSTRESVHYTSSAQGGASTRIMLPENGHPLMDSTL

SMILES	LPA1 agonist/antagonist activity in words (LPA1)	LPA2 agonist/antagonist activity in words (LPA2)	LPA3 agonist/antagonist activity in words (LPA3)	Ki (LPA3; read-out: LPA3 (Ki), Table 5)	IC50 (LPA3; Table 5)	PPARγ (PPARγ)	ATX (% inhib.) [1]	IC50 [1]	IC50 (LPA2; read-out: LPA2 IC50, Table 3)	EC50 (LPA3; Table 3)	IC50 (LPA3; Table 3)	LPA2 effect in words (LPA2; *transient)	EC50 (LPA2; LPA2 EC50, *transient)	IC50 (LPA3; 200 nM LPA)	also measured
CCCCCCCCNC(=O)[C@@H](COP(=O)(O)O)NC(=O)CCCCCCC [Cpd 19b]	no effect	no effect	true LPA3 receptor specific antagonist	489 nM	935 nM										PPARγ activation in words (PPARγ): no effect
CCCCCCCCC=CCCCCCCCC1OCC(COP(=O)([O-])O)O1.[K+] (mixture of isomers) [Analog 13]		inhibited LPA1-3 receptors	LPA1/3 antagonist activity			Agonist	30%	141 nM	> 30000 nM	> 30000 nM	527 nM				Ki (LPA3; read-out: LPA3 (Ki), Table 3): 548 nM
CCCCCCCC/C=C\CCCCCCCC1OCC(COP([O-])(O)=S)O1.[K+] (centres unmarked) [Analog 14, 2-Heptadec-8-enyl-(1,3)dioxolan-4yl methyldipotassium thiophosphate]												almost full agonist	34 nM		EC50 (PC3 cells; Homo sapiens, PC-3, compound alone): 1370 nM; Emax (PC3 cells; Homo sapiens, PC-3, of the LPA-alone max. response, read-out: PC3 cells maximal response): ~86%; PC3 cells effect of compound alone (PC3 cells; compound alone): stimulatory effect. Its maximal; EC50 (LPA1; LPA1 EC50): 981 nM; Emax (LPA1; RH7777, read-out: RH-LPA1 cells maximal response): ~50%; EC50 (LPA1; RH-LPA1 cells EC50, compound alone): 2170 nM; LPA1 effect in words (LPA1): Partial agonist; RH-LPA1 cells effect of compound alone (LPA1; compound alone): stimulatory effect. Its maximal; Emax (LPA2; RH7777, read-out: RH-LPA2 cells maximal response): ~74%; EC50 (LPA2; RH-LPA2 cells EC50, compound alone): 639 nM; RH-LPA2 cells effect of compound alone (LPA2; compound alone): stimulatory effect. Its maximal; LPA3 effect in words (LPA3; Tables 2, 4, 6): Partial agonist; EC50 (LPA3): 639 nM
CCCCCCCC/C=C\CCCCCCCC1OCC(COP(=O)([O-])O)O1.[K+] (centres unmarked) [Analog 13, 2-Heptadec-8-enyl-(1,3)dioxolan-4yl methyl dipotassium phosphate]												full agonist	68 nM	527 nM	IC50 (PC3 cells; Homo sapiens, PC-3, read-out: PC3 cells IC50): 1500 nM; IC50 (PC3 cells; read-out: PC3 cells IC50, listed as 18:1 Δ 9 acetal phosphate): 1040 nM; IC50 (LPA2; [2]): 460 nM; IC50 (LPA2; [3]): 777 nM
CCCCCCCCC=CCCCCCCCC1OCC(COP(=O)([O-])O)O1.[K+] (centres unmarked) [Analog 37]			LPA3 antagonists			Agonist	46%	238 nM	> 30000 nM	> 30000 nM	484 nM				EC50 (LPA2; read-out: LPA2 EC50, Table 3): > 10000 nM; Ki (LPA3; read-out: LPA3 (Ki), Table 3): 241 nM
CCCCCCCCNC(=O)[C@H](COP(=O)(O)O)NC(=O)CCCCCCC [Cpd 19a]	no effect	no effect	selective LPA3 antagonist	196 nM	414 nM										PPARγ activation in words (PPARγ): agonist of PPARγ
CCCCCCCCCCCCC1OCC(COP(=O)(O)O)O1 (centres unmarked) [Analog 12]	pantagonist	pantagonist	pantagonist			Agonist	26%	232 nM		> 30000 nM	2870 nM		1180 nM	2870 nM	IC50 (PC3 cells; Homo sapiens, PC-3, inhibition of 100 nM LPA response, read-out: PC3 cells IC50): 1860 nM; IC50 (PC3 cells; Homo sapiens, PC-3, inhibition of 300 nM LPA response, read-out: PC3 cells IC50): 2110 nM; Ki (LPA1): 652 nM; IC50 (LPA1; LPA1 IC50, 200 nM LPA): 1110 nM; IC50 (LPA1; LPA1 IC50, 300 nM LPA): 2150 nM; IC50 (LPA1; LPA1 IC50, Table 3): 1110 nM; IC50 (LPA1; RH-LPA1 cells IC50, inhibition of 200 nM LPA response): 1110 nM; IC50 (LPA1; RH-LPA1 cells IC50, inhibition of 300 nM LPA response): 2150 nM; EC50 (LPA1; read-out: LPA1 EC50, Table 3): > 30000 nM; EC50 (LPA2; LPA2 EC50, Table 3): > 30000 nM; IC50 (LPA2; [2]): 397 nM; IC50 (LPA2; [3]): 657 nM; Ki (LPA3): 681 nM
CCCCCCCCC=CCCCCCCCC1OCC(COP([O-])(O)=S)O1.[K+] (centres unmarked) [Analog 38]	pan-agonists	pan-agonists	full agonists			Agonist	64%	363 nM	> 30000 nM	204 nM	> 30000 nM				LPA1 (Emax) (LPA1; [4]): 68%; EC50 (LPA1; read-out: LPA1 EC50, Table 3): 2260 nM; IC50 (LPA1; read-out: LPA1 IC50, Table 3): > 30000 nM; LPA2 (Emax) (LPA2; [4]): 72%; EC50 (LPA2; read-out: LPA2 EC50, Table 3): 1540 nM; LPA3 (Emax) (LPA3; [4]): 102%
CCCCCCCCOC[C@@H](COP(O)(O)=S)OCCCCCCCC [Cpd 13a, dialkyl thiophosphatidic acid 8:0]				67 nM	184 nM							Weak stimulation *transient		184 nM	Ki (LPA1; read-out: LPA1 (Ki), Table 5): 139 nM; IC50 (LPA1; read-out: LPA1 IC50, 200 nM LPA): 328 nM; IC50 (LPA1; read-out: LPA1 IC50, Table 5): 328 nM
CCCCCCCCCCCCCCC(F)(F)P(=O)(O)O														1510 nM	LPA1 effect in words (LPA1): Weak inhibition; EC50 (LPA2; LPA2 EC50, Table 4): ~10000 nM; LPA2 effect in words (LPA2; Table 4): Weak agonist
